Results published in patent US20070123556A1, “Treatment with Sigma Receptor Agonists Post-Stroke” (UNIVERSITY OF SOUTH FLORIDA, priority 2005, published 2007).
“And” between values parts separate entries of the source, which are not always exact repeats. Equal values may be shown once.

How the values were obtained:
[1] = test system: cultured cortical neurons; assay: in vitro ischemia (sodium azide/glucose deprivation), fura-2 [Ca2+]i; format: cell-based, rat
Description: The effects of sigma receptors on ischemia-induced changes in intracellular calcium concentrations were studied in cultured cortical neurons from embryonic (E18) rats. Dams were euthanatized by decapitation, uterus removed, and embryos dissected out and placed in isotonic buffer containing (in mM): 137 NaCl, 5 KCl, 0.2 NaH2PO4, 0.2 KH2PO4, 5.5 glucose, 6 sucrose (pH 7.4 with NaOH). Cortex were excised and minced, and tissue digested in isotonic buffer containing 0.25% trypsin/EDTA for 10 min at 37° C. and added to 3× volume of high glucose culture media (Dulbecco's Modified Eagle Media; Invitrogen, Inc., Carlsbad, Calif.), 10% (v/v) fetal calf serum, 100 U/ml penicillin and 0.1 mg/ml streptomycin. Cells were counted on a hemocytometer, plated (0.5×10^6 cells) on 18 mm coverslips coated with poly-l-lysine, and incubated at 37° C. under a 95% air, 5% CO2 atmosphere. After 24 hr the media was replaced with Neurobasal (Invitrogen) medium supplemented with B27 (Invitrogen) and 0.5 mM 1-glutamine to limit astrocyte proliferation in the cultures. Cells were used after 14-21 days in culture.
Intracellular free-calcium was measured using the calcium sensitive dye, fura-2 as previously described (DeHaven and Cuevas, 2004). Cells plated on coverslips were incubated for 1 hour at room temperature in physiological saline solution (PSS) consisting of (in mM): 140 NaCl, 3 KCl, 2.5 CaCl2, 1.2 MgCl2, 7.7 glucose and 10 HEPES (pH to 7.2 with NaOH), which also contained 1 μM of the membrane permeable ester form of fura-2, acetoxymethylester (fura-2 AM) and 0.1% dimethyl sulfoxide (DMSO). The coverslips were then washed in PSS (fura-2 AM free) prior to the experiments being carried out. All solutions were applied via a rapid application system identical to that previously described (Cuevas and Berg, 1998).
A DG-4 high-speed wavelength switcher (Sutter Instruments Co., Novato, Calif.) was used to apply alternating excitation light, and fluorescent emission was captured using a Sensicam digital CCD camera (Cooke Corporation, Auburn Hills, Mich.) and recorded with Slidebook 3.0 software (Intelligent Imaging Innovations, Denver, Colo.). Changes in [Ca^2+]i were calculated using the Slidebook 3 software (Intelligent Imaging Innovations) using methods described previously (DeHaven and Cuevas, 2004).
In vitro ischemia was achieved using the sodium azide/glucose deprivation model.
The control bath solution for all experiments was a physiological saline solution (PSS) containing (in mM) 140 NaCl, 1.2 MgCl2, 3 KCl, 2.5 CaCl2, 7.7 glucose and 10 HEPES, pH to 7.2 with NaOH. All drugs were applied in this solution unless otherwise noted. In vitro ischemia was induced by addition of the cytochrome oxidase inhibitor, NaN3 (4 mM), and removal of glucose from the PSS. For experiments in which multiple ischemic episodes were induced in a single cell, the order of drug application was alternatively reversed to compensate for any effects due to rundown, desensitization or ischemic preconditioning. For experiments with metaphit, cells were preincubated in 50 μM metaphit during the last 15 mm of fura-2 loading and immediately prior to experiments being conducted. The metaphit was washed off for 5 min in the bath using PSS.

[2] = test system: cultured cortical neurons; assay: spontaneous Ca2+ transients, fura-2 [Ca2+]i; format: cell-based, rat; conditions: 100 μM
rats subjected to MCAO = assay: isolectin IB4 labeling, activated microglia/macrophages after MCAO; format: in vivo, rat; conditions: 15 mg/kg DTG from 24 h post-MCAO
Description: MCAO surgery was performed as previously reported by Vendrame et al (Vendrame et al., 2004) and originally described by Longa et al (Longa et al., 1989). Laser Doppler Radar (LDR) was used to monitor decrease in blood perfusion which indicates successful occlusion (Moor Instruments Ltd, Devon, England). A 2 mm diameter hole was drilled into the right parietal bone (1 mm posterior and 4 mm lateral from bregma), and a guide screw was set. The LDR probe (MP10M200ST; Moor) was inserted into the guide screw, and the tip of the probe was placed against the pial surface of the brain. […] For MCAO, the embolus (4 cm long, 6 lb test monofilament) was advanced up the internal carotid artery into the middle cerebral artery and tied off at the internal/external carotid junction to produce permanent occlusion. The rat was then sutured, given a 1 ml subcutaneous injection of saline, and allowed to wake in a fresh cage.
Rats were randomly assigned to 1 of 7 groups: (1) MCAO (n=7); (2) MCAO and 15 mg/kg DTG in a 3% lactic acid vehicle (n=11); (3) MCAO and 30 mg/kg DTG (n=16); (4) MCAO and bi-daily injections of 30 mg/kg DTG (n=12); (5) MCAO and 10 mg/kg N-[2-(3,4-dichlorophenyl)ethyl]-N-methyl-2-(dimethylamino)ethylamine (BD 1047) (n=4); (6) MCAO and 10 mg/kg BD1047+30 mg/kg DTG (n=4); (7) sham/MCAO and 15 mg/kg DTG (n=4). […]

cultured microglia = conditions: response to LPS; cited from earlier work

Cc1ccccc1NC(=N)Nc1ccccc1C [DTG, 1,3-di-o-tolyguanidine]
ischemia-induced elevation in [Ca2+]i ([1]; 50 μM DTG after preincubation in 50 μM metaphit): 237 ± 39 nM | decrease of ischemia-evoked elevation in [Ca2+]i ([1]; 50 μM DTG, cells preincubated in 50 μM metaphit): 52±8% | decrease of ischemia-evoked rise in [Ca2+]i ([1]; 50 μM DTG, control cells): ~70% and 83±3% | ischemia-induced elevation in [Ca2+]i ([1]; 50 μM DTG, no metaphit (control 291±47 nM)): 47 ± 9 nM | effect on spontaneous increases in [Ca2+]i (number of events) [2]: reversibly block | isolectin IB4-positive cells in the infarct zone (rats subjected to MCAO): fails to elicit these elevations | production of TNF-α (cultured microglia): inhibits | production of nitric oxide (cultured microglia): inhibits
